Data published in ChEMBL document CHEMBL5058649, “Data for DCP probe BAY 1816032” (2022).

What was measured:
[1] = biological target: Serine/threonine-protein kinase PLK2 (Homo sapiens) (UniProt Q9NYY3); assay: PLK2 DiscoveRx kinase panel; conditions: Compound concentration 1.0 uM
[2] = biological target: Ephrin type-A receptor 5 (Homo sapiens) (UniProt P54756); assay: EPHA5 DiscoveRx kinase panel; conditions: Compound concentration 1.0 uM
[3] = biological target: Ribosomal protein S6 kinase alpha-3 (Homo sapiens) (UniProt P51812); assay: RSK2(Kin.Dom.2-C-terminal) DiscoveRx kinase panel; conditions: Compound concentration 1.0 uM
[4] = biological target: Atypical kinase COQ8B, mitochondrial (Homo sapiens) (UniProt Q96D53); assay: ADCK4 DiscoveRx kinase panel; conditions: Compound concentration 1.0 uM
[5] = biological target: Misshapen-like kinase 1 (Homo sapiens) (UniProt Q8N4C8); assay: MINK DiscoveRx kinase panel; conditions: Compound concentration 1.0 uM
[6] = biological target: Phosphatidylinositol 4,5-bisphosphate 3-kinase catalytic subunit delta isoform (Homo sapiens) (UniProt O00329); assay: PIK3CD DiscoveRx kinase panel; conditions: Compound concentration 1.0 uM
HeLa = assay: HeLa (presence of 3 nM Paclitaxel) cell line Proliferation assay; format: functional, Homo sapiens; conditions: time 4 day
[7] = biological target: Activin receptor type-1B (Homo sapiens) (UniProt P36896); assay: ACVR1B DiscoveRx kinase panel; conditions: Compound concentration 1.0 uM
Rattus norvegicus = species on record: Rattus norvegicus; assay: Inhibition of Glycine, Strychnine-Sensitive at 10 µM in the Eurofins-Panlabs radioligand binding assay (Eurofins_assay_239000); conditions: Compound concentration 10.0 uM
[8] = biological target: Eukaryotic translation initiation factor 2-alpha kinase 1 (Homo sapiens) (UniProt Q9BQI3); assay: EIF2AK1 DiscoveRx kinase panel; conditions: Compound concentration 1.0 uM
[9] = biological target: Inhibitor of nuclear factor kappa-B kinase subunit alpha (Homo sapiens) (UniProt O15111); assay: IKK-alpha DiscoveRx kinase panel; conditions: Compound concentration 1.0 uM
[10] = biological target: Cyclin-dependent kinase 17 (Homo sapiens) (UniProt Q00537); assay: PCTK2 DiscoveRx kinase panel; conditions: Compound concentration 1.0 uM
[11] = biological target: Protein-tyrosine kinase 2-beta (Homo sapiens) (UniProt Q14289); assay: PYK2 DiscoveRx kinase panel; conditions: Compound concentration 1.0 uM
[12] = biological target: Mitogen-activated protein kinase 10 (Homo sapiens) (UniProt P53779); assay: JNK3 DiscoveRx kinase panel; conditions: Compound concentration 1.0 uM
[13] = biological target: Fibroblast growth factor receptor 2 (Homo sapiens) (UniProt P21802); assay: FGFR2 DiscoveRx kinase panel; conditions: Compound concentration 1.0 uM
MAO-A = MAO-A (Homo sapiens, UniProt P21397); assay: Inhibition of Monoamine Oxidase MAO-A at compound concentration of 10.0 uM in the Eurofins-Panlabs enzyme assay (Eurofins_assay_140010); design: substrate with concentration 50 uM Kynuramine, incubation time 60 min, incubation temperature 37 C; conditions: human recombinant MAO-A expressed in insect Hi5 cells, probe Kynuramine (50 uM), compound concentration 10 uM
[14] = biological target: Tyrosine-protein kinase Blk (Homo sapiens) (UniProt P51451); assay: BLK DiscoveRx kinase panel; conditions: Compound concentration 1.0 uM
[15] = biological target: Beta-1 adrenergic receptor (Homo sapiens) (UniProt P08588); conditions: Compound concentration 10.0 uM
[16] = biological target: SRSF protein kinase 1 (Homo sapiens) (UniProt Q96SB4); assay: SRPK1 DiscoveRx kinase panel; conditions: Compound concentration 1.0 uM
[17] = biological target: Serine/threonine-protein kinase D1 (Homo sapiens) (UniProt Q15139); assay: PRKD1 DiscoveRx kinase panel; conditions: Compound concentration 1.0 uM
[18] = biological target: Tyrosine-protein kinase BTK (Homo sapiens) (UniProt Q06187); assay: BTK DiscoveRx kinase panel; conditions: Compound concentration 1.0 uM
[19] = biological target: 5-hydroxytryptamine receptor 1D (Homo sapiens, UniProt P28221); conditions: Compound concentration 10.0 uM
[20] = biological target: Dual serine/threonine and tyrosine protein kinase (Homo sapiens) (UniProt Q6XUX3); assay: RIPK5 DiscoveRx kinase panel; conditions: Compound concentration 1.0 uM
[21] = biological target: Calcium/calmodulin-dependent protein kinase type II subunit beta (Homo sapiens) (UniProt Q13554); assay: CAMK2B DiscoveRx kinase panel; conditions: Compound concentration 1.0 uM
[22] = biological target: Histamine H3 receptor (Homo sapiens) (UniProt Q9Y5N1); conditions: Compound concentration 10.0 uM
[23] = biological target: Serine/threonine-protein kinase Nek1 (Homo sapiens) (UniProt Q96PY6); assay: NEK1 DiscoveRx kinase panel; conditions: Compound concentration 1.0 uM
[24] = biological target: Interleukin-1 receptor-associated kinase 1 (Homo sapiens) (UniProt P51617); assay: IRAK1 DiscoveRx kinase panel; conditions: Compound concentration 1.0 uM
[25] = biological target: Hormonally up-regulated neu tumor-associated kinase (Homo sapiens) (UniProt P57058); assay: HUNK DiscoveRx kinase panel; conditions: Compound concentration 1.0 uM
[26] = biological target: Glutamate NMDA receptor (Rattus norvegicus) (UniProt P35439+Q00959+Q00960+Q00961+Q62645+Q8VHN2+Q9R1M7); conditions: Compound concentration 10.0 uM
[27] = biological target: Mitogen-activated protein kinase kinase kinase 19 (Homo sapiens) (UniProt Q56UN5); assay: YSK4 DiscoveRx kinase panel; conditions: Compound concentration 1.0 uM
[28] = biological target: Leukocyte tyrosine kinase receptor (Homo sapiens) (UniProt P29376); assay: LTK DiscoveRx kinase panel; conditions: Compound concentration 1.0 uM
[29] = biological target: 5-hydroxytryptamine receptor 1B (Homo sapiens) (UniProt P28222); conditions: Compound concentration 10.0 uM
[30] = biological target: Sigma non-opioid intracellular receptor 1 (Homo sapiens, UniProt Q99720); conditions: Compound concentration 10.0 uM
[31] = biological target: Epithelial discoidin domain-containing receptor 1 (Homo sapiens, UniProt Q08345); assay: DDR1 DiscoveRx kinase panel
[32] = biological target: Serine/threonine-protein kinase WNK2 (Homo sapiens) (UniProt Q9Y3S1); assay: WNK2 DiscoveRx kinase panel; conditions: Compound concentration 1.0 uM
[33] = biological target: Melanocyte-stimulating hormone receptor (Homo sapiens) (UniProt Q01726); assay: Melanocortin MC1 Eurofins-Panlabs radioligand binding assay; conditions: Compound concentration 10.0 uM
[34] = biological target: TGF-beta receptor type-2 (Homo sapiens) (UniProt P37173); assay: TGFBR2 DiscoveRx kinase panel; conditions: Compound concentration 1.0 uM
[35] = biological target: Serine/threonine-protein kinase pim-1 (Homo sapiens) (UniProt P11309); assay: PIM1 DiscoveRx kinase panel; conditions: Compound concentration 1.0 uM
[36] = biological target: Ephrin type-A receptor 3 (Homo sapiens) (UniProt P29320); assay: EPHA3 DiscoveRx kinase panel; conditions: Compound concentration 1.0 uM
[37] = biological target: Dual specificity protein kinase CLK3 (Homo sapiens) (UniProt P49761); assay: CLK3 DiscoveRx kinase panel; conditions: Compound concentration 1.0 uM
[38] = biological target: Fibroblast growth factor receptor 1 (Homo sapiens) (UniProt P11362); assay: FGFR1 DiscoveRx kinase panel; conditions: Compound concentration 1.0 uM
[39] = biological target: Tyrosine-protein kinase Fyn (Homo sapiens) (UniProt P06241); assay: FYN DiscoveRx kinase panel; conditions: Compound concentration 1.0 uM
[40] = biological target: Cyclin-dependent kinase 3 (Homo sapiens) (UniProt Q00526); assay: CDK3 DiscoveRx kinase panel; conditions: Compound concentration 1.0 uM
[41] = biological target: Tyrosine-protein kinase Lck (Homo sapiens) (UniProt P06239); assay: Inhibition of Protein Tyrosine Kinase, LCK at 10 µM in the Eurofins-Panlabs enzyme assay (Eurofins_assay_176020); conditions: Compound concentration 10.0 uM
[42] = biological target: Receptor tyrosine-protein kinase erbB-3 (Homo sapiens) (UniProt P21860); assay: ERBB3 DiscoveRx kinase panel; conditions: Compound concentration 1.0 uM
[43] = biological target: Macrophage-stimulating protein receptor (Homo sapiens) (UniProt Q04912); assay: MST1R DiscoveRx kinase panel; conditions: Compound concentration 1.0 uM
[44] = biological target: Beta-3 adrenergic receptor (Homo sapiens) (UniProt P13945); conditions: Compound concentration 10.0 uM
[45] = biological target: Beta-2 adrenergic receptor (Homo sapiens) (UniProt P07550); conditions: Compound concentration 10.0 uM
Chain of Beta-2 adrenergic receptor (Homo sapiens) (P07550 whole entry, looked up): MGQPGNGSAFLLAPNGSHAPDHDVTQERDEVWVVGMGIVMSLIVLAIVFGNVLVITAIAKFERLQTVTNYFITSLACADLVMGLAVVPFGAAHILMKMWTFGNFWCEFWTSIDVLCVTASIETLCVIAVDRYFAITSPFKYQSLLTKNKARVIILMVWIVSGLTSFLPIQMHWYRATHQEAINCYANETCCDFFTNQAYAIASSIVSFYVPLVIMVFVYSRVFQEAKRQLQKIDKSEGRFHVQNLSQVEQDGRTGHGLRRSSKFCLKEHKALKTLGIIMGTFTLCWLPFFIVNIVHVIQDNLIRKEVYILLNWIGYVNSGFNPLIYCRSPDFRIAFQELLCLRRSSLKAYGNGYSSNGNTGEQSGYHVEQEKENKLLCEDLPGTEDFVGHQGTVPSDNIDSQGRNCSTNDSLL

Chain of Epithelial discoidin domain-containing receptor 1 (Q08345 whole entry, the tested form may be a part): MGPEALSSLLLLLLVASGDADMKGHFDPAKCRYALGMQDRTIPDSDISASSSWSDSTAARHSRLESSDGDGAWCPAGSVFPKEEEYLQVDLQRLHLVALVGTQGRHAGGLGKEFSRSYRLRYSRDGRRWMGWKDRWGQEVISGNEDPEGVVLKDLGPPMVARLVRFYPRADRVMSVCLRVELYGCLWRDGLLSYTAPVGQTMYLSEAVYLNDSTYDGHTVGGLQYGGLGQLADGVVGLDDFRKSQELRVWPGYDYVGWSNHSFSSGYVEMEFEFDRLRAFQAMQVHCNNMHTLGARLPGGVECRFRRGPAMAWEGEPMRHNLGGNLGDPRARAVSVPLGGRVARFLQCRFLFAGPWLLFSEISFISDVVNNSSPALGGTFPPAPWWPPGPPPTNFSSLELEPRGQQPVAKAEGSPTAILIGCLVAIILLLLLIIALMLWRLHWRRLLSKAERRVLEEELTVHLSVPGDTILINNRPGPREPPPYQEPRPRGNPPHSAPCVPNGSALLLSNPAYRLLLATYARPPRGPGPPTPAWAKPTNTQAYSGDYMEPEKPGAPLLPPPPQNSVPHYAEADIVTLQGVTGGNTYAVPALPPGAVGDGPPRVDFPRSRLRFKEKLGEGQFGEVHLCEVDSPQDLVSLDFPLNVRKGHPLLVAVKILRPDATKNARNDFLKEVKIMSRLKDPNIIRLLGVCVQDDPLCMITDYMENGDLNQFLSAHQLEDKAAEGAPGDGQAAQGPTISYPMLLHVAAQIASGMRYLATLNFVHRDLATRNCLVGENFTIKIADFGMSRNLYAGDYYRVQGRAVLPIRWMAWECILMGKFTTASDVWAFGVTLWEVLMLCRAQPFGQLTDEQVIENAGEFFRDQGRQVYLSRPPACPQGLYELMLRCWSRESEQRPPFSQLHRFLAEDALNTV
Chain of MAO-A (P21397 whole entry): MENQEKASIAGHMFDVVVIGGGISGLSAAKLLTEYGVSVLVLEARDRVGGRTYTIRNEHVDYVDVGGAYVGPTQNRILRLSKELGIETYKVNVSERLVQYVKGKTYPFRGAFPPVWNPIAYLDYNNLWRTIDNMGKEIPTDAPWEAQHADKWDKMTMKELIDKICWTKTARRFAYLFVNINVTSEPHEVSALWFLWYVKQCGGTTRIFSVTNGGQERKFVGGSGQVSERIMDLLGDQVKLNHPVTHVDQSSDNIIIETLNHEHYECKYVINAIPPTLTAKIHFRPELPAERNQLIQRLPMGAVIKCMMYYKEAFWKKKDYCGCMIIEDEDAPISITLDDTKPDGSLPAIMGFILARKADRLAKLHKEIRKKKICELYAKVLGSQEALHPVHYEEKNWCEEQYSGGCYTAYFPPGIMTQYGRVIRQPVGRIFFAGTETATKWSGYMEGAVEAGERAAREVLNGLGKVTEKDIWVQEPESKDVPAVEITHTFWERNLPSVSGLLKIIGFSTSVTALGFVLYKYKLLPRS
Chain of Tyrosine-protein kinase Blk (Homo sapiens) (P51451 2-505 limits assumed): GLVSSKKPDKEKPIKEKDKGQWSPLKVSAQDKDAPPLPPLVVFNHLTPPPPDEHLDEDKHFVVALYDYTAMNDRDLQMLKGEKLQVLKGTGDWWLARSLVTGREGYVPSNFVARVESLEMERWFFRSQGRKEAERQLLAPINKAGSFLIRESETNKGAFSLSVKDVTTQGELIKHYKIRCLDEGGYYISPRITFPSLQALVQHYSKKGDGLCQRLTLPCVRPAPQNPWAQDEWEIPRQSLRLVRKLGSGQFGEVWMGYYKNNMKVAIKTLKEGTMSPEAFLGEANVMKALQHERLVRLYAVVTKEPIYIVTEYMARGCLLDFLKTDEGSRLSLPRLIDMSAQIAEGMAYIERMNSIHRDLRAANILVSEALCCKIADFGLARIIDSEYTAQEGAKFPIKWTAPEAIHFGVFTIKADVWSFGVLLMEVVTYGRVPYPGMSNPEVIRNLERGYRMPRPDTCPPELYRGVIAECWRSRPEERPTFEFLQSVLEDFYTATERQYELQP
Chain of Fibroblast growth factor receptor 2 (Homo sapiens) (P21802 22-821 limits assumed): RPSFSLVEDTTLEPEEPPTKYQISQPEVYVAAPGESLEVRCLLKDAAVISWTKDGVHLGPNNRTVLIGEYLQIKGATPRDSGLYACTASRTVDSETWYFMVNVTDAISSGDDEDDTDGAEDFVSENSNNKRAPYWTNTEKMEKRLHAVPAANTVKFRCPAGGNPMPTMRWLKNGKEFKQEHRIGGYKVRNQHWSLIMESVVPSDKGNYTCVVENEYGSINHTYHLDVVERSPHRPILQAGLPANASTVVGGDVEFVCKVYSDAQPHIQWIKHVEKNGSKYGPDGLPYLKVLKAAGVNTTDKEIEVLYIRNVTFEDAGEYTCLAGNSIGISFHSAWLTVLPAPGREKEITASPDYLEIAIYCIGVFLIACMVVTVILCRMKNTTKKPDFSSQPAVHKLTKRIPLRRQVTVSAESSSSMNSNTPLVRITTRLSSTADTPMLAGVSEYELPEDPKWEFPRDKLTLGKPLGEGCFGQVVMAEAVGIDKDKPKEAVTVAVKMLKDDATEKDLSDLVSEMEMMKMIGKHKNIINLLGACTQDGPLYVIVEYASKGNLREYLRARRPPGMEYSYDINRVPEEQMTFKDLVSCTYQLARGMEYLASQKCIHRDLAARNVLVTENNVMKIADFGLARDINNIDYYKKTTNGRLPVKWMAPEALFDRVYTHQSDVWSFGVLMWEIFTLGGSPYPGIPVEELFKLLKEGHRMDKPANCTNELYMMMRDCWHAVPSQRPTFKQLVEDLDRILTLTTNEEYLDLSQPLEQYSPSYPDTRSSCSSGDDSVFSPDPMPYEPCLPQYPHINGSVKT
Chain of Ephrin type-A receptor 3 (Homo sapiens) (P29320 whole entry): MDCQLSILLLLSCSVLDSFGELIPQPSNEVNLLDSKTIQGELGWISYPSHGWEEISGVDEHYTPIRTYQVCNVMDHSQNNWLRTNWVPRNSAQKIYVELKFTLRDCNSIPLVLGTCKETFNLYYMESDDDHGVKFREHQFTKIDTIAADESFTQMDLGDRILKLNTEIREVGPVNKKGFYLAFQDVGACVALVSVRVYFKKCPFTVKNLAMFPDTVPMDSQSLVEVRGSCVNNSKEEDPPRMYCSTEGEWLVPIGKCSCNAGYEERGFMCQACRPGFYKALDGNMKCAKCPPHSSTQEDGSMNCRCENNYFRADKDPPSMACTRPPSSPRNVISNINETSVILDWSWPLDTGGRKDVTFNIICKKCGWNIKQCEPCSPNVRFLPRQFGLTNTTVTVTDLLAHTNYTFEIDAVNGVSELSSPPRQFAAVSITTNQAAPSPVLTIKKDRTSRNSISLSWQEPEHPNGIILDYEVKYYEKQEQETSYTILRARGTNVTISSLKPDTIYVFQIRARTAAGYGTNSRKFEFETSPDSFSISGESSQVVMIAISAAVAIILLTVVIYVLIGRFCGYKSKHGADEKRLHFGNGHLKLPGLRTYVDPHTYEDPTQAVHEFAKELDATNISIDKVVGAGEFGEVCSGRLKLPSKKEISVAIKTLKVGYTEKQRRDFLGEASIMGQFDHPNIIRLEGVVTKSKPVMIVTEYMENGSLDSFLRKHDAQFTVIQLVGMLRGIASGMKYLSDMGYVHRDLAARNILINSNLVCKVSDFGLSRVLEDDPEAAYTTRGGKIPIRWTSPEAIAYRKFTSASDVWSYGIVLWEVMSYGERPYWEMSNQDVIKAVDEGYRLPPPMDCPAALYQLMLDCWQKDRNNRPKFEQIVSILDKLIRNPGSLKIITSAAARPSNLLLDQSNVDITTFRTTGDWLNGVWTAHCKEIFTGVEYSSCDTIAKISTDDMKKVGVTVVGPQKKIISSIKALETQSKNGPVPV
Chain of Hormonally up-regulated neu tumor-associated kinase (Homo sapiens) (P57058 whole entry): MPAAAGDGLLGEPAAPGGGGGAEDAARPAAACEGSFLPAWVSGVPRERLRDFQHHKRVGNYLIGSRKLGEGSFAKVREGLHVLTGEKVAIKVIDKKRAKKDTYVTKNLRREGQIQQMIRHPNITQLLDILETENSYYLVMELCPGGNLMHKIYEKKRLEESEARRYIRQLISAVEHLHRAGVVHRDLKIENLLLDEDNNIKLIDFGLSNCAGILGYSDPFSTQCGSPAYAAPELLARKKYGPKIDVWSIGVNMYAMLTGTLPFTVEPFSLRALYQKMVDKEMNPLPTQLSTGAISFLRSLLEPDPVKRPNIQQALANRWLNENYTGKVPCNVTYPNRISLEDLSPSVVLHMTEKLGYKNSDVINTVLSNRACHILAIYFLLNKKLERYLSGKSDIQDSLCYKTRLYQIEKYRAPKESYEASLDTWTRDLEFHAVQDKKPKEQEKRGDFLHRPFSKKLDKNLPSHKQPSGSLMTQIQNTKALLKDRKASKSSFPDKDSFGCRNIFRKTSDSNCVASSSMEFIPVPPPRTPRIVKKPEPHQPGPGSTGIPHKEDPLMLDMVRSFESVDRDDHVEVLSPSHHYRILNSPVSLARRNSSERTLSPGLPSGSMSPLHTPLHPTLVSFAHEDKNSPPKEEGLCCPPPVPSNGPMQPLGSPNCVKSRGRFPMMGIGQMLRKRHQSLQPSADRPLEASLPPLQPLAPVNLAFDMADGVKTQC

Molecule `COc1cnccc1Nc1nc(-c2nn(Cc3c(F)cc(OCCO)cc3F)c3ccccc23)ncc1OC` has a residual activity [1] of 100%, a residual activity [2] of 78% and a residual activity [3] of 98%. For the same molecule, the residual activity [4] was 99%, the residual activity [5] was 76% and the residual activity [6] was 100%. For the same molecule, the “Cell Proliferation IC50” value (HeLa) was 0.063 µM, the residual activity [7] was 72% and the inhibition (Rattus norvegicus) was 0%. For the same molecule, the residual activity [8] was 87%, the residual activity [9] was 100% and the residual activity [10] was 87%. The residual activity [11] was 95%, the residual activity [12] was 56% and the residual activity [13] was 100%. For the same molecule, the inhibition at 60 min, 10 µM (MAO-A) was 7% (not active), the residual activity [14] was 88% and the inhibition [15] was -6.28%. It also gave a residual activity [16] of 90%, a residual activity [17] of 100% and a residual activity [18] of 100%. The inhibition [19] was 9.3%, the residual activity [20] was 100% and the residual activity [21] was 100%. For the same molecule, the inhibition [22] was 21.3%, the residual activity [23] was 78% and the residual activity [24] was 100%. It also gave a residual activity [25] of 99%, an inhibition [26] of 4% and a residual activity [27] of 97%. It also gave a residual activity [28] of 100%, an inhibition [29] of 11.8% and an inhibition [30] of 4.34%. It also gave a Kd [31] of 2.3 µM, a residual activity ([31]; Compound concentration 1.0 uM) of 21% and a residual activity [32] of 91%. For the same molecule, the inhibition [33] was 4%, the residual activity [34] was 100% and the residual activity [35] was 100%. The residual activity [36] was 85%, the residual activity [37] was 100% and the residual activity [38] was 87%. The residual activity [39] was 89%, the residual activity [40] was 99% and the inhibition [41] was 6%. It also gave a residual activity [42] of 70%, a residual activity [43] of 80% and an inhibition [44] of 4.26%. The inhibition [45] was 10%.
